In patent publication US12673022B2, “Drug delivery system using solution” (Kyoto University, priority 2018, dated 2026):

What was measured:
[1] = test system: C57BL/6J mouse right lower limb gastrocnemius; assay: DNA mutation introduction efficiency using mRosa26 gRNA (T7E1 assay) after local administration; assay type: in vivo; conditions: Example 6; administration solution 2: 25 mM or 250 mM 2′-deoxycytidine, 6-phospho-D-gluconic acid, N-carbamyl-L-aspartic acid or 2-deoxy-D-glucose-6-phosphate, 533 mM sodium chloride; 50 μL once; Dunnett's test; FIG. 10
Experimental: Cas9 protein (20 μg), mRosa26 gRNA (5 μg), 10×PBS (5 μL) and a 2.0 M aqueous 2′-deoxycytidine solution (6.25 μL) were mixed so as to obtain an aqueous solution having final concentrations of 400 ng/μL Cas9 protein, 100 ng/μL mRosa26 gRNA, 533 mM sodium chloride and 250 mM 2′-deoxycytidine. The concentration of the resultant solution was adjusted to be 533 mM with a 5 M aqueous sodium chloride solution, diluted with UltraPure DNase/RNase-Free Distilled Water up to a liquid volume of 50 μL and incubated at normal temperature for 15 minutes. […] The Cas9 protein herein was subjected to buffer replacement with 250 mM sodium chloride by use of Amicon® Ultra 2 mL Centrifugal Filters and then put in use.
Cas9 protein (40 μg), mRosa26 gRNA (10 μg), 10×PBS (5 μL), and a […] compound stock solution (25 μL) were mixed so as to obtain final concentrations: 800 ng/μL Cas9 protein, 200 ng/μL mRosa26 gRNA, 533 mM sodium chloride and 250 mM compound. […]
To the right lower limb gastrocnemius of each of 9 weeks-old male C57BL/6J mice (CLEA Japan, Inc), administration solution 1 or administration solution 2 and PBS (50 μL) were administered. […] The resultant PCR product was purified by QIAquick PCR purification kit (QIAGEN), treated with T7 Endonuclease I (NEB) and analyzed by Agilent 4200 TapeStation (Agilent). […]
As shown in FIG. 10 and FIG. 11, to find statistical significant difference between GABA and each conditions of the compounds, Dunnett's multiple comparison test using DNA mutation introduction efficiency, Indel (%), and exon skipping efficiency, was carried out. It was determined that if P value is less than 0.05, these is a statistically significant difference. […]
A solution for transduction containing 2′-deoxycytidine as a compound (A3) and sodium chloride as the (B) salt was prepared. […] Administration solution 1 was locally administered to the mouse right lower limb gastrocnemius and the activity to cleave a target gene was evaluated. […]

[2] = test system: EGFP reporter cells (C2C12 cells); assay: Number of HOECHST cells detected (cell viability) in the EGFP-SSA assay; conditions: Example 1; compound 250.0 mM vs 250 mM GABA positive control on the same plate; formula (2)
Experimental: To each of the solutions, a complex of gRNA and Cas9 protein was further dissolved. Mouse myoblasts (C2C12 cells) were contacted with each of the solutions in vitro, and target gene cleavage activity and cell viability were evaluated.

With `NC(=O)N[C@@H](CC(=O)O)C(=O)O` [N-Carbamyl-L-aspartic acid] the “Genome editing efficiency (indel (%)) compared to 250 mM GABA” value [1] was “statistically significant results compared to GABA” and the “Relative ratio to GABA: Number of HOECHST cells” value [2] was 1.19.
